Measured values: patent publication US20240199647A1, “ANTI-VIRAL COMPOUNDS” (Aligos Therapeutics, Inc., priority 2022, published 2024)
Read-outs that look alike come from different tables or passages of the source.

What was measured:
SARS-Cov-2 3CLpro = SARS-Cov-2 3CLpro (Severe acute respiratory syndrome coronavirus 2, UniProt P0DTD1); assay: biochemical; conditions: Table A, read-out: SARS-Cov-2 (IC50)
[1] = test system: human beta-coronavirus OC43; assay: OC43 Coronavirus Assay in HeLa cells (antiviral, cytopathic effect, cell-titer-glo); assay type: cell-based; conditions: Betacoronavirus 1, OC43, HeLa, Table B, OC43 coronavirus in HeLa cells, read-out: EC50
[2] = test system: SARS-CoV-2 B.1.1.7 lineage; assay: microbe, parasite or virus in culture; assay type: cell-based; conditions: Severe acute respiratory syndrome coronavirus 2, Table C, SARS-CoV-2 B.1.1.7 in A549-dual_ACE2_TMPRSS2 cells, read-out: A549-dual_ACE2_TMPRSS2 (EC50)
in vitro = conditions: human
[3] = Cytotoxicity in HeLa cells without addition of OC43 virus (in parallel); conditions: human, HeLa cells, without OC43 virus

SMILES	IC50 (SARS-Cov-2 3CLpro; class symbols)	EC50 ([1]; class symbols)	EC50 ([2]; class symbols)	CC50 (in vitro)	CC50 at 6 days [3]	EC50 ([1]; cells given as a bound)	EC50 ([2]; cells given as a bound)	IC50 (SARS-Cov-2 3CLpro; cells given as a bound)
C[C@H](NC(=O)C(F)(F)F)C(=O)N(C)[C@@H](CC(C)(C)C)C(=O)N1C[C@@]2(C[C@H]1C#N)Oc1cc(F)cc(F)c1NC2=O [Compound 62]	< 0.02 µM	0.1 to 1 µM	0.1 to 1 µM	> 1 µM	> 10 µM	–	–	–
CN(C(=O)[C@H](CC(F)(F)F)NC(=O)C(F)(F)F)[C@@H](CC1CC1)C(=O)N1C[C@@]2(C[C@H]1C#N)Oc1cc(F)cc(F)c1NC2=O [Compound 85]	< 0.02 µM	0.1 to 1 µM	< 0.1 µM	> 1 µM	> 10 µM	–	–	–
C[C@H](Nc1ncnc2ccccc12)C(=O)N(C)[C@@H](CC1CC1)C(=O)N1C[C@@]2(C[C@H]1C#N)Oc1cccnc1NC2=O [Compound 230]	< 0.02 µM	0.1 to 1 µM	–	–	> 10 µM	–	–	–
CN(C)C(=O)c1ccc2c(c1)O[C@@]1(C[C@@H](C#N)N(C(=O)[C@H](CC3CC3)N(C)C(=O)[C@H](CC3CC3)NC(=O)C(F)(F)F)C1)C(=O)N2 [Compound 112, (2R,5'S)-5′-cyano-1′-((S)-3-cyclopropyl-2-((S)-3-cyclopropyl-N-methyl-2-(2,2,2-trifluoroacetamido)propanamido)propanoyl)-N,N-dimethyl-3-oxo-3,4-dihydrospiro[benzo[b][1,4]oxazine-2,3′-pyrrolidine]-7-carboxamide]	< 0.02 µM	< 0.1 µM	0.1 to 1 µM	> 1 µM	> 10 µM	–	–	–
CC(C)C[C@@H](C(=O)N1C[C@@]2(C[C@H]1C#N)N=C(c1ccccc1)NC2=O)N(C)C(=O)c1cc2c(F)cc(F)cc2[nH]1 [Example 6, N-[(2S)-1-[(5R,8S)-8-cyano-4-oxo-2-phenyl-1,3,7-triazaspiro[4.4]non-1-en-7-yl]-4-methyl-1-oxopentan-2-yl]-4,6-difluoro-N-methyl-1H-indole-2-carboxamide]	< 0.02 µM	0.1 to 1 µM	0.1 to 1 µM	> 1 µM	> 10 µM	–	–	–
COC1CNC(=O)[C@]12C[C@@H](C#N)N(C(=O)[C@H](CC1CC1)N(C)C(=O)[C@H](CC1CC1)NC(=O)C(F)(F)F)C2 (stereo partly drawn) [Compound 225, (2S)—N-((2S)-1-((3S,5S)-3-cyano-9-methoxy-6-oxo-2,7-diazaspiro[4.4]nonan-2-yl)-3-cyclopropyl-1-oxopropan-2-yl)-3-cyclopropyl-N-methyl-2-(2,2,2-trifluoroacetamido)propanamide]	0.02 to 0.2 µM	0.1 to 1 µM	0.1 to 1 µM	> 1 µM	> 10 µM	–	–	–
C[C@H](NC(=O)C(F)(F)C(F)(F)F)C(=O)N(C)[C@@H](CC1CC1)C(=O)N1C[C@@]2(C[C@H]1C#N)Oc1cc(F)cc(F)c1NC2=O [Compound 95]	< 0.02 µM	1 to 10 µM	< 0.1 µM	> 1 µM	> 10 µM	–	–	–
COC(=O)N[C@@H](CC1CC1)C(=O)N(C)[C@@H](CC1CC1)C(=O)N1C[C@@]2(C[C@H]1C#N)Oc1ccccc1CNC2=O [Compound 139]	< 0.02 µM	< 0.1 µM	0.1 to 1 µM	> 1 µM	> 10 µM	–	–	–
CN(C(=O)[C@H](CC(C)(C)C)NC(=O)C(F)(F)F)[C@@H](CC1CC1)C(=O)N1C[C@@]2(C[C@H]1C#N)Oc1cc(F)cc(F)c1NC2=O [Compound 89]	< 0.02 µM	< 0.1 µM	< 0.1 µM	> 1 µM	> 10 µM	–	–	–
CN(C(=O)c1cc2c(F)cc(F)c(F)c2[nH]1)[C@@H](CC1CC1)C(=O)N1C[C@@]2(C[C@H]1C#N)Oc1cccc(F)c1NC2=O [Compound 97]	< 0.02 µM	< 0.1 µM	0.1 to 1 µM	> 1 µM	> 10 µM	–	–	–
CN(C(=O)[C@H](CC1CC1)NC(=O)C(F)(F)F)[C@@H](CC1CC1)C(=O)N1C[C@@]2(C[C@H]1C#N)Oc1ccccc1CNC2=O [Compound 81, (S)—N—((S)-1-((2R,5'S)-5′-cyano-3-oxo-4,5-dihydro-3H-spiro[benzo[f][1,4]oxazepine-2,3′-pyrrolidin]-1′-yl)-3-cyclopropyl-1-oxopropan-2-yl)-3-cyclopropyl-N-methyl-2-(2,2,2-trifluoroacetamido)propenamide]	< 0.02 µM	< 0.1 µM	< 0.1 µM	> 1 µM	> 10 µM	–	–	–
C[C@@H](NC(=O)C(F)(F)F)C(=O)N(C)[C@@H](CC1CC1)C(=O)N1C[C@@]2(C[C@H]1C#N)Oc1cc(F)cc(F)c1NC2=O [Compound 83]	0.02 to 0.2 µM	0.1 to 1 µM	< 0.1 µM	> 1 µM	> 10 µM	–	–	–
CN(C(=O)[C@H](CC(C)(C)C)n1cc(C2CC2)nn1)[C@@H](CC1CC1)C(=O)N1C[C@@]2(C[C@H]1C#N)Oc1cc(F)cc(F)c1NC2=O [Compound 150]	< 0.02 µM	< 0.1 µM	< 0.1 µM	> 1 µM	> 10 µM	–	–	–
CN(C(=O)CCN1CCOCC1)[C@@H](CC1CC1)C(=O)N1C[C@@]2(C[C@H]1C#N)Oc1cc(F)cc(F)c1NC2=O [Compound 132]	0.02 to 0.2 µM	1 to 10 µM	0.1 to 1 µM	> 1 µM	> 10 µM	–	–	–
CN(C(=O)[C@H](CC1CC1)NS(=O)(=O)c1ccc(F)cc1)[C@@H](CC1CC1)C(=O)N1C[C@@]2(C[C@H]1C#N)Oc1cccnc1NC2=O [Compound 197]	< 0.02 µM	< 0.1 µM	0.1 to 1 µM	> 1 µM	> 10 µM	–	–	–
CN(C(=O)[C@H](CC1CC1)NC(=O)C1(F)CC1)[C@@H](CC1CC1)C(=O)N1C[C@@]2(C[C@H]1C#N)Oc1cc(F)cc(F)c1NC2=O [Compound 76]	–	< 0.1 µM	< 0.1 µM	> 1 µM	> 10 µM	–	–	–
N#C[C@@H]1C[C@]2(CN1C(=O)[C@H](CC1CC1)NC(=O)[C@H](CC1CC1)NC(=O)C(F)(F)F)Oc1cc(F)cc(F)c1NC2=O [Compound 78]	–	0.1 to 1 µM	0.1 to 1 µM	> 1 µM	> 10 µM	–	–	–
COc1cccc2[nH]c(C(=O)N(C)[C@@H](CC3CC3)C(=O)N3C[C@@]4(C[C@H]3C#N)Oc3cc(F)cc(F)c3NC4=O)cc12 [Compound 134]	< 0.02 µM	–	–	> 1 µM	–	> 10 µM	> 1 µM	–
CC1NC(=O)[C@]2(C[C@@H](C#N)N(C(=O)[C@H](CC3CC3)N(C)C(=O)[C@H](CC3CC3)NC(=O)C(F)(F)F)C2)Oc2ccccc21 (single isomer, unassigned) [Compound 223, (S)—N—((S)-1-((2R,5S*,5'S)-5′-cyano-5-methyl-3-oxo-4,5-dihydro-3H-spiro[benzo[f][1,4]oxazepine-2,3′-pyrrolidin]-1′-yl)-3-cyclopropyl-1-oxopropan-2-yl)-3-cyclopropyl-N-methyl-2-(2,2,2-trifluoroacetamido)propanamide]	0.02 to 0.2 µM	0.1 to 1 µM	–	–	> 10 µM	–	–	–
CC(C)C[C@@H](C(=O)N1C[C@]2(C[C@H]1C#N)C(=O)Nc1ccccc1C2(C)O)N(C)C(=O)[C@H](C)NC(=O)C(F)(F)F (stereo partly shown) [Compound 80]	0.2 to 2 µM	< 0.1 µM	–	–	> 10 µM	–	–	–
CN(C(=O)c1cnn(-c2ccccc2C(F)(F)F)c1)[C@@H](CC1CC1)C(=O)N1C[C@@]2(C[C@H]1C#N)Oc1cc(F)cc(F)c1NC2=O [Compound 79]	–	< 0.1 µM	0.1 to 1 µM	> 1 µM	> 10 µM	–	–	–
Cc1ccc(C(=O)N(C)[C@@H](CC2CC2)C(=O)N2C[C@@]3(C[C@H]2C#N)Oc2cccnc2NC3=O)[nH]c1=O [Compound 232]	0.2 to 2 µM	–	–	–	> 10 µM	> 10 µM	–	–
CN(C(=O)[C@H](CC1CC1)NC(=O)C(F)(F)F)[C@@H](CC1CC1)C(=O)N1C[C@@]2(C[C@H]1C#N)Oc1ncccc1NC2=O [Compound 91]	< 0.02 µM	< 0.1 µM	–	–	> 10 µM	–	–	–
CN(C(=O)[C@H](CC1CC1)NC(=O)c1ccc(F)cc1)[C@@H](CC1CC1)C(=O)N1C[C@@]2(C[C@H]1C#N)Oc1cc(F)cc(F)c1NC2=O [Compound 77]	–	< 0.1 µM	< 0.1 µM	> 1 µM	> 10 µM	–	–	–
CN(C(=O)c1ccc(=O)[nH]n1)[C@@H](CC1CC1)C(=O)N1C[C@@]2(C[C@H]1C#N)Oc1cccnc1NC2=O [Compound 231]	–	–	–	–	> 10 µM	> 10 µM	–	> 2 µM
CN(C(=O)[C@H](CCCCN)NC(=O)C(F)(F)F)[C@@H](CC1CC1)C(=O)N1C[C@@]2(C[C@H]1C#N)Oc1cccnc1NC2=O [Compound 221]	< 0.02 µM	–	–	–	> 10 µM	> 10 µM	–	–
COC(=O)N[C@@H](CC1CC1)C(=O)N(C)[C@@H](CC1CC1)C(=O)N1C[C@@]2(C[C@H]1C#N)Oc1cc(F)cc(F)c1NC2=O [Compound 75]	–	–	< 0.1 µM	> 1 µM	> 10 µM	> 10 µM	–	–
